From patent US12544393B2, “Apoptosis-mimicking structures for inducing tissue regeneration” (THE REGENTS OF THE UNIVERSITY OF MICHIGAN, priority 2017, dated 2026)

System: bone marrow stromal cells (BMSCs)
Assay: Transwell migration assay of BMSCs
Type: cell-based, mouse
Method: The macrophage culture, co-cultures with apoptosis mimicking structures, and co-cultures with the control microspheres were also used in transwell assays to determine in vitro bone marrow stromal cell migration. Bone marrow stromal cells (BMSCs) were derived from bone marrow flush, and were cultured in α-MEM medium (20% FBS, Pen/Strep, glutamine) for one time (passage) after isolation.
Cell migration was assessed in 24-well plate transwells (Corning, Inc.) with a diameter of 6.5 mm and a pore size of 8 μm coated with 0.2 mg/mL collagen type I (EMD Millipore). BMSCs were placed in the upper chambers. Conditioned media from the macrophage culture, the co-cultures, or α-MEM medium (a negative control) containing CCL-2 protein and 0.2% FBS were added to the lower chambers. After 8 hours, cells were fixed with 2.5% glutaraldehyde for 15 minutes. Cells which remained on top of transwell membranes were removed with cotton swabs. Cells that had migrated through the pores to the lower surface were stained with Gill's Hematoxylin (Sigma-Aldrich). Four fields at 200× magnification were selected at random, photo micrographic images were obtained (shown in FIG. 15C), and the cells in each image were counted (results shown in FIG. 15D).
Different concentrations of recombinant CCL-2 were also examined for increasing BMSC migration.

CCL-2: recombinant C-C motif chemokine ligand 2 protein
increase of BMSCs migration compared with the control medium (concentration of 10 ng/ml): about 70% | further increase in BMSCs migration (concentration up to 100 ng/ml): did not cause further increase
